Strand notation (5' to 3'): a small letter for the sugar, then the base; units joined by * are phosphorothioate-linked, units joined directly phosphodiester-linked; [ ] holds rarer units or linkages, { } end groups; capitals alone tell only the bases. k = constrained ethyl (cEt); [5mC] = 5-methylcytosine; d = 2'-deoxy (DNA)

The text below walks through data of patent publication US11214803B2, “Modulators of YAP1 expression” (Ionis Pharmaceuticals, Inc., priority 2019, dated 2022).

In this data set the test system is Yap1 mRNA. In words: Dose-dependent inhibition of human Yap1 in A-431 cells (Example 7, 10,000 cells per well, RTS36584). The conditions noted are these: free uptake. Type of data set: cell-based. The gist of the method:
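Yap1 mRNA was expressed as percent of untreated control after normalization to total RNA (RIBOGREEN), and IC50 was derived by log/linear linear regression. The read-out used primer-probe set RTS36584 roughly 48 hours after free-uptake dosing of oligonucleotides into A-431 cells (10,000 cells/well).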

Setting [1] is: Table 60, 15.6 nM, A-431 cells 10,000 cells per well, 48 hours.
[2] abbreviates: Table 60, 62.5 nM, A-431 cells 10,000 cells per well, 48 hours.
[3] abbreviates: Table 60, 4000.00 nM, A-431 cells 10,000 cells per well, 48 hours.
The mark [4] stands for this setting: Table 60, A-431 cells 10,000 cells per well.
Where [5] appears, read: Table 61, 15.6 nM, A-431 cells 10,000 cells per well, 48 hours.
Where [6] appears, read: Table 61, 62.5 nM, A-431 cells 10,000 cells per well, 48 hours.
[7] abbreviates: Table 61, 4000.00 nM, A-431 cells 10,000 cells per well, 48 hours.
The mark [8] stands for this setting: Table 61, A-431 cells 10,000 cells per well.
Where [9] appears, read: 15.6 nM, A-431 cells, 10,000 cells per well, approximately 48 hours.
Setting [10] is: 62.5 nM, A-431 cells, 10,000 cells per well, approximately 48 hours.
[11] abbreviates: 4000.00 nM, A-431 cells, 10,000 cells per well, approximately 48 hours.
The mark [12] stands for this setting: A-431 cells, approximately 48 hours, linear regression on log/linear plot.
Setting [13] is: Table 58, 15.6 nM, A-431 cells 10,000 cells per well, 48 hours.
The mark [14] stands for this setting: Table 58, 62.5 nM, A-431 cells 10,000 cells per well, 48 hours.
Where [15] appears, read: Table 58, 4000.00 nM, A-431 cells 10,000 cells per well, 48 hours.
The mark [16] stands for this setting: Table 58, A-431 cells 10,000 cells per well.

As a reminder, the IC50 is the concentration needed to halve the response being measured. A lower IC50 goes with inhibition by little substance. Regarding “958578 (k[5mC]*kT*kT*dA*dA*dT*d[5mC]*dT*dG*dT*dG*dG*d[5mC]*kT*kA*k[5mC]; antisense) [compound 958578]”, the “Yap1 mRNA, % UTC” value by setting is: under setting [1], 78 % UTC; under setting [2], 52 % UTC; under setting [3], 10 % UTC. Also, the IC50 under setting [4] turned out to be 100 nM.

Regarding “958724 (kT*k[5mC]*kA*dG*dT*dT*dA*dT*d[5mC]*d[5mC]*dT*dA*dT*k[5mC]*k[5mC]*k[5mC]; antisense) [compound 958724]”, the “Yap1 mRNA, % UTC” value is, setting by setting: under setting [5], 89 % UTC; under setting [6], 55 % UTC; under setting [7], 6 % UTC. Besides, half-maximal inhibition under setting [8] (IC50) required 100 nM.

Regarding “958505 (kG*kA*kT*dA*dA*dT*d[5mC]*dG*dA*dG*dA*dT*dT*kT*kA*kA; antisense) [compound 958505]”, the “Yap1 mRNA, % UTC” value came to 81 % UTC under setting [9], 72 % UTC under setting [10] and 21 % UTC under setting [11]. Further, the half-inhibitory concentration (IC50) under setting [12] turned out to be 200 nM.

Take “958466 (kG*kT*k[5mC]*dA*dT*dT*dA*dA*dG*dG*dA*dT*dG*kT*k[5mC]*kA; antisense) [compound 958466]”: the “Yap1 mRNA, % UTC” value (Table 57, 15.6 nM, A-431 cells 10,000 cells per well, 48 hours) was determined as 84 % UTC; the “Yap1 mRNA, % UTC” value (Table 57, 62.5 nM, A-431 cells 10,000 cells per well, 48 hours) is given as 81 % UTC; the “Yap1 mRNA, % UTC” value (Table 57, 4000.00 nM, A-431 cells 10,000 cells per well, 48 hours) amounted to 30 % UTC. Moreover, for the setting “Table 57, A-431 cells 10,000 cells per well”, the IC50 is 300 nM.

As to “958477 (kA*kT*kT*dT*d[5mC]*d[5mC]*dG*dG*dT*dG*d[5mC]*dA*dT*kG*kT*kG; antisense) [compound 958477]”, the “Yap1 mRNA, % UTC” value worked out at 83 % UTC under setting [13], 37 % UTC under setting [14] and 6 % UTC under setting [15]. This substance yielded an IC50 under setting [16] of 100 nM.

“958565 (kT*kT*kG*dA*dG*d[5mC]*dA*d[5mC]*dT*dG*dA*dA*dA*kG*kT*kA; antisense) [compound 958565]”: the “Yap1 mRNA, % UTC” value is, setting by setting: under setting [9], 83 % UTC; under setting [10], 62 % UTC; under setting [11], 13 % UTC. The substance also yielded a 50% inhibitory concentration (IC50) under setting [12] of 100 nM.

On to “958580 (kA*kT*kA*dA*dT*d[5mC]*dT*dT*dA*dA*dT*d[5mC]*dT*kG*kT*kG; antisense) [compound 958580]”, for which the “Yap1 mRNA, % UTC” value is reported as 95 % UTC under setting [9], 59 % UTC under setting [10] and 9 % UTC under setting [11]. The same substance had an IC50 under setting [12] of 100 nM.

For “958785 (kG*k[5mC]*kA*dA*dT*d[5mC]*d[5mC]*dA*d[5mC]*dA*dA*dT*dT*k[5mC]*k[5mC]*kA; antisense) [compound 958785]”, the “Yap1 mRNA, % UTC” value is, setting by setting: under setting [9], 78 % UTC; under setting [10], 52 % UTC; under setting [11], 6 % UTC. Further, under setting [12], half-maximal inhibition (IC50) was put at 100 nM.

Regarding “958529 (k[5mC]*kA*kA*dG*dT*d[5mC]*dT*dT*dG*dT*dA*dA*dG*kT*kA*kA; antisense) [compound 958529]”, the “Yap1 mRNA, % UTC” value runs as follows: under setting [5], 103 % UTC; under setting [6], 64 % UTC; under setting [7], 11 % UTC. In addition, the 50% inhibitory concentration (IC50) under setting [8] stood at 100 nM.

In the case of “958577 (kT*k[5mC]*kT*dG*dT*dG*dG*d[5mC]*dT*dA*d[5mC]*dT*dG*kG*k[5mC]*kA; antisense) [compound 958577]”, the “Yap1 mRNA, % UTC” value under setting [13] amounted to 81 % UTC; the “Yap1 mRNA, % UTC” value under setting [14] is recorded as 51 % UTC; the “Yap1 mRNA, % UTC” value under setting [15] stood at 11 % UTC. For the same substance, inhibition under setting [16] was half-maximal at 100 nM (IC50).

Take “958753 (kT*kG*kT*dA*dT*dA*dT*dG*d[5mC]*d[5mC]*dG*dT*dT*k[5mC]*k[5mC]*k[5mC]; antisense) [compound 958753]”: the “Yap1 mRNA, % UTC” value reads like this: under setting [1], 72 % UTC; under setting [2], 48 % UTC; under setting [3], 11 % UTC. Further, the midpoint of inhibition under setting [4], the IC50, lay at 100 nM.

With “958525 (kA*kT*kG*dA*dA*dG*dG*dT*dA*dA*dA*d[5mC]*d[5mC]*kA*k[5mC]*kT; antisense) [compound 958525]”, the “Yap1 mRNA, % UTC” value under setting [9] is reported as 94 % UTC; the “Yap1 mRNA, % UTC” value under setting [10] stood at 57 % UTC; the “Yap1 mRNA, % UTC” value under setting [11] is listed as 8 % UTC. This substance showed an IC50 under setting [12] of 100 nM.

Regarding “958575 (kG*kG*k[5mC]*dT*dA*d[5mC]*dT*dG*dG*d[5mC]*dA*dA*dA*kT*kT*kA; antisense) [compound 958575]”, the “Yap1 mRNA, % UTC” value is reported as 89 % UTC under setting [9], 58 % UTC under setting [10] and 20 % UTC under setting [11]. Besides, half-maximal inhibition under setting [12] (IC50) required 100 nM.
